For 1 substance, IC50 results are on record in patent US7323457B2, “Substituted sulfonamides and ureas useful for inhibiting kinase activity” (Aventis Pharmaceuticals Inc., priority 2001, dated 2008).

In this assay the target is Src Kinase (p60^C-Src) (Homo sapiens, UniProt P12931). Briefly: Src kinase DELFIA time-resolved fluorometric assay. The assay is classed as biochemical. As to conditions: Src kinase inhibitory activity; 100 μM ATP, poly(Glu, Tyr) 4:1 substrate, 15 min at room temp.; read-out: Activity (μMol, Delfia assay. IC50). On the procedure:
The compounds 1-25 above were assayed for activity with respect to the Src protein tyrosine kinase by the fluorometric method described in Measurement of the Protein Tyrosine Kinase Activity of c-Src Using Time-Resolved Fluorometry of Europium Chelates, Braunwalder, A.F. et al., Analytical Biochemistry 238, 159-164 (1996), the disclosure of which is incorporated herein by reference, using the materials and procedures further specified below.
General Assay Method for Src-Kinase:
• Costar 384 Clear, non-treated, high-binding plates • Sigma poly(Glu, Tyr) 4:1, ave. MW 35,000 • Src Kinase (p60^C-Src) • Sigma ATP (1.5 mM Stock Soln. in H2O) • MES Buffer: 30 mM MES (pH 6.8) • 10 mM MgCl2 • MBI Buffer: (MES+0.4 mg/ml BSA+0.003% IGEPAL) • Wallac Eu-labelled anti-phosphotyrosine Antibody (CR04-100) • Coating Solution: • 22.5 mM Na2CO3 (pH 9.6) • 27.5 mM NaHCO3 • 0.9% NaCl • Antibody Dilution Buffer: (MES+3% BSA) • DELFIA® Wash Solution (TTBS): • 0.5 M NaCl • 20 mM Tris (pH7.4) • 0.15% Tween 20 • DELFIA Enhancement Solution Method:
The plates were coated with 0.1 mg/ml poly(Glu, Tyr) in Coating Solution, 35 μl/well. […]
The reaction was stopped by aspiration, and then washed 3 times with MES (100 μl/wash). […] 20 μl DELFIA enhancement solution was added and the plates were read on a Wallac Victor plate reader in time-resolved fluorescence mode using 340 nm excitation and 615 nm emission wavelengths.

On to “[4-(Piperidin-4-yl)carbonyl-1-[[2-(4-phenylbutanoyl) amino]-4-[(1-aminocarbonyl-2-(naphth-2-yl))ethylamino]-carbonylaminophenyl]homopiperazine [Example 21]”, for which the IC50 – broadly, the midpoint of a concentration-inhibition curve – amounted to 22 µM.
